The record followed here is BindingDB's records for patent US11472769 (Eccogene (Shanghai) Co., Ltd., 2022).

Bounds are passed on as bounds.

T1 sequence (Q16853 whole entry, looked up): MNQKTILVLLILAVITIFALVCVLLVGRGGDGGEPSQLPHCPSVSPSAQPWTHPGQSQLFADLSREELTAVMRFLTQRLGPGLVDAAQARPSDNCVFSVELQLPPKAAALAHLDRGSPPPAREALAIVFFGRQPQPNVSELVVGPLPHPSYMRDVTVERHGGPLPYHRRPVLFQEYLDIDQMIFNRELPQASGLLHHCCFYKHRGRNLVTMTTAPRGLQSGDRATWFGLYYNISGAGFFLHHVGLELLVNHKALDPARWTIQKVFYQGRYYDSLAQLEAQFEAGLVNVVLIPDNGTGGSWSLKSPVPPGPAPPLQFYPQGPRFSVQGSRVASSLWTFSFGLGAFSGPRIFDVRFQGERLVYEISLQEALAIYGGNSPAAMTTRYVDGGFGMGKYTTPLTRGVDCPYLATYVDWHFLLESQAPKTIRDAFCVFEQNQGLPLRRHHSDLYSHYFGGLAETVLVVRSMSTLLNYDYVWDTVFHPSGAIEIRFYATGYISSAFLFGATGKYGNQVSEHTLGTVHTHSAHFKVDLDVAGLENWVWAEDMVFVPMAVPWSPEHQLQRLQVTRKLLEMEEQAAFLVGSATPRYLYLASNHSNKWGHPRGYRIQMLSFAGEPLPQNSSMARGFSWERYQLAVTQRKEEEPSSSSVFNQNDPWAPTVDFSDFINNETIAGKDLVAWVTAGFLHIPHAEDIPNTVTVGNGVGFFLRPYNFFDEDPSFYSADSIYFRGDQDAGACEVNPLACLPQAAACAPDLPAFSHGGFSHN

This test has as its target T1, Amine oxidase [copper-containing] 3 (Homo sapiens, UniProt Q16853).
T1 construct: gene AOC3
In words: SSAO Activity Assay. As to the method:
Amine oxidase activity of recombinant hSSAO, hMAO-A, and hMAO-B isoforms are measured using the MAO-Glo assay kit (Promega, V1402). Ten nL test compounds (with DMSO as vehicle, 0.1% v/v for hSSAO, hMAO-A and hMAO-B) were added into assay plates by Echo, and pre-incubated with 5 μL of enzyme for 30 mins at room temperature before the addition of 5 μL of luminogenic substrate. The substrate concentration is 40 μM for human recombinant SSAO, 40 μM for human recombinant MAO-A, and 4 μM for human recombinant MAO-B. The hSSAO and hMAO-A assays were conducted in the MAO-A reaction buffer in the kit, and the MAO-B assay was conducted in the MAO-B reaction buffer. Oxidation of the substrate was conducted for 1 hr, before the addition of detecting reagent according the manufacture's protocol. The IC50 value of the tested compounds was calculated by fitting the dose response curve using a 4-parameter non-linear regression routine.
For `CC1(CS(=O)(=O)c2ccc(OC/C(=C/F)CN)cc2)CCOCC1` [US11472769, Compound 5], the IC50 is under 20 nM.

`CO[C@H]1CC[C@H](CS(=O)(=O)c2ccc(OC/C(=C/F)CN)cc2)CC1` [US11472769, Compound 19] yielded a concentration for half-maximal inhibition (IC50) of under 20 nM.

As to `C[C@@H](CN1CCCC1=O)CS(=O)(=O)c1ccc(OC/C(=C/F)CN)cc1` [US11472769, Compound 94], the IC50 entry is “in the range around 60 nM”.

Molecule `NC/C(=C\F)COc1ccc(S(=O)(=O)CC23CCC(NC(=O)CC(F)(F)F)(CC2)CC3)cc1` [US11472769, Compound 79] yielded an IC50 of under 20 nM.

`NC/C(=C\F)COc1ccc(S(=O)(=O)COCC2CCOCC2)cc1` [US11472769, Compound 30] gave a concentration for half-maximal inhibition (IC50) of under 20 nM.

`CC(C)C(=O)N(C)CC(C)(C)CS(=O)(=O)c1ccc(OC/C(=C/F)CN)cc1` [US11472769, Compound 96] displayed an IC50 of under 20 nM.

Molecule `N#CC12CCC(CS(=O)(=O)c3ccc(OC/C(=C/F)CN)cc3)(CC1)CC2` [US11472769, Compound 87] yielded an IC50 of under 20 nM.

As for `NC/C(=C\F)COc1ccc(S(=O)(=O)C[C@@H]2CCCO2)cc1` [US11472769, Compound 23], the IC50 entry was “in the range around 60 nM”.

Take `C[C@H](CN1CCC2(CCCC2)C1=O)CS(=O)(=O)c1ccc(OC/C(=C/F)CN)cc1` [US11472769, Compound 109]: the IC50 result was “in the range around 60 nM”.

As to `NC/C(=C\F)COc1ccc(S(=O)(=O)C[C@H]2CC[C@H](O)CC2)cc1` [US11472769, Compound 14], the concentration for half-maximal inhibition (IC50) entry is “in the range around 60 nM”.

As to `NC/C(=C\F)COc1ccc(S(=O)(=O)C[C@@H]2CCOC2)cc1` [US11472769, Compound 21], the 50% inhibitory concentration (IC50) entry is “in the range around 60 nM”.

For `C[C@@H](CN1CCC2(CCCC2)C1=O)CS(=O)(=O)c1ccc(OC/C(=C/F)CN)cc1` [US11472769, Compound 110], the IC50 result was “in the range around 60 nM”.

With `C[C@@H](CN1CCCCC1=O)CS(=O)(=O)c1ccc(OC/C(=C/F)CN)cc1` [US11472769, Compound 105], the IC50 entry was “in the range around 60 nM”.

Take `NC/C(=C/F)COc1ccc(S(=O)(=O)CC23CCC(NC(=O)C4CC4)(CC2)CC3)cc1` [US11472769, Compound 139]: the half-maximal inhibitory concentration (IC50) is under 20 nM.

For `NC/C(=C\F)COc1ccc(S(=O)(=O)Cc2ccc(C(=O)N3CCCC3)cc2)cc1` [US11472769, Compound 46], the concentration for half-maximal inhibition (IC50) entry is “in the range around 60 nM”.

Molecule `NC/C(=C\F)COc1ccc(S(=O)(=O)CC23CCC(C4(O)CC4)(CC2)CC3)cc1` [US11472769, Compound 18] showed an IC50 of under 20 nM.

Regarding `NC/C(=C\F)COc1ccc(S(=O)(=O)CC2CCCN(C(=O)C3CCCC3)C2)cc1` (configuration not stated) [US11472769, Compound 100], the concentration for half-maximal inhibition (IC50) entry was “in the range around 60 nM”.

Consider `CC1(CS(=O)(=O)c2ccc(OC/C(=C/F)CN)cc2F)CCOCC1` [US11472769, Compound 7], for which the IC50 is under 20 nM.

`NC/C(=C\F)COc1ccc(S(=O)(=O)C[C@H]2CCCO2)cc1` [US11472769, Compound 24] yielded a 50% inhibitory concentration (IC50) of under 20 nM.

`NC/C(=C\F)COc1ccc(S(=O)(=O)CC2CCOCC2)cc1F` [US11472769, Compound 9] gave a 50% inhibitory concentration (IC50) of under 20 nM.

The molecule `COCS(=O)(=O)c1ccc(OC/C(=C/F)CN)cc1` [US11472769, Compound 28] returned a concentration for half-maximal inhibition (IC50) of under 20 nM.

With `C[C@H](CN1CCCC1=O)CS(=O)(=O)c1ccc(OC/C(=C/F)CN)cc1` [US11472769, Compound 93], the half-maximal inhibitory concentration (IC50) is over 500 nM.

The molecule `NC/C(=C\F)COc1ccc(S(=O)(=O)CC2CCN(C(=O)c3ccc(F)cc3)CC2)cc1` [US11472769, Compound 39] showed a half-maximal inhibitory concentration (IC50) of under 20 nM.

Consider `NC/C(=C\F)COc1ccc(S(=O)(=O)C[C@H]2CCOC2)cc1` [US11472769, Compound 22], for which the IC50 entry was “in the range around 60 nM”.

Molecule `NC/C(=C\F)COc1ccc(S(=O)(=O)C[C@H]2CC[C@H](NC(=O)C3CC3)CC2)cc1` [US11472769, Compound 88] came in with a 50% inhibitory concentration (IC50) of under 20 nM.

Take `NC/C(=C\F)COc1ccc(S(=O)(=O)CC2CCOCC2)cc1` [US11472769, Compound 1]: the half-inhibitory concentration (IC50) was under 20 nM.

On to `C[C@H](CN1CCCCC1=O)CS(=O)(=O)c1ccc(OC/C(=C/F)CN)cc1` [US11472769, Compound 104], for which the half-maximal inhibitory concentration (IC50) entry is “in the range around 60 nM”.

Molecule `NC/C(=C\F)COc1ccc(S(=O)(=O)CC23CCC(C(=O)NC4CCC4)(CC2)CC3)cc1` [US11472769, Compound 64] displayed a half-maximal inhibitory concentration (IC50) of under 20 nM.

Molecule `CC1CCN(C23CCC(CS(=O)(=O)c4ccc(OC/C(=C/F)CN)cc4)(CC2)CC3)C1=O` (configuration not stated) [US11472769, Compound 83] displayed an IC50 of under 20 nM.

Turning to `NC/C(=C\F)COc1ccc(S(=O)(=O)CC23CCC(C(=O)O)(CC2)CC3)cc1` [US11472769, Compound 146], the 50% inhibitory concentration (IC50) entry was “in the range around 60 nM”.

Regarding `NC/C(=C\F)COc1ccc(S(=O)(=O)C[C@H]2CC[C@@H](O)CC2)cc1` [US11472769, Compound 15], the IC50 is under 20 nM.

As to `CC(C)n1nc(CS(=O)(=O)c2ccc(OC/C(=C/F)CN)cc2)ccc1=O` [US11472769, Compound 102], the half-maximal inhibitory concentration (IC50) was under 20 nM.

As for `NC/C(=C\F)COc1ccc(S(=O)(=O)CC23CCC(NC(=O)C4CC4)(CC2)CC3)cc1` [US11472769, Compound 76], the IC50 is under 20 nM.

Molecule `NC/C(=C\F)COc1ccc(S(=O)(=O)CC23CCC(N4CCCS4(=O)=O)(CC2)CC3)cc1` [US11472769, Compound 82] displayed an IC50 of under 20 nM.

`CO[C@H]1CC[C@@H](CS(=O)(=O)c2ccc(OC/C(=C/F)CN)cc2)CC1` [US11472769, Compound 20] came in with a concentration for half-maximal inhibition (IC50) of under 20 nM.

Consider `C[C@@H](CN1CCOCC1)CS(=O)(=O)c1ccc(OC/C(=C/F)CN)cc1` [US11472769, Compound 113], for which the 50% inhibitory concentration (IC50) is under 20 nM.

For `C[C@H](CN1CCOCC1)CS(=O)(=O)c1ccc(OC/C(=C/F)CN)cc1` [US11472769, Compound 112], the IC50 entry was “in the range around 60 nM”.

As usually defined, the IC50 is the concentration that inhibits the measured activity by half. Higher therefore signals weaker potency in that assay.
